Results: US20140243292A1, “SUBSITUTED 2-(CHROMAN-6-YLOXYL)-THIAZOLES AND THEIR USE AS PHARMACEUTICALS” (Sanofi, priority 2011, published 2014)
pIC50: −log10 of the molar value. Counter-ions that a name gives are not always drawn.

Key:
human NCX1 [1] = target: T1, human NCX1 (Homo sapiens, UniProt P32418); assay: NCX1 inhibition, forward mode (Ca2+ efflux out of cells), FLIPR calcium assay; type: cell-based; details: for inhibition at 10 µM: CHO cells stably expressing human NCX1, read-out: Inhibition in % at 10 μM, IC50 value not determined; for pIC50: CHO cells stably expressing human NCX1, read-out: NCX1fw IC50
T1 construct: expressed in transfected cells
Source text: The sodium/calcium exchanger NCX1 can transport calcium ions and sodium ions through the cell membrane. The transport is an exchange of Ca^2+ and Na^+ in two directions depending on membrane potential and ion gradients. At the first direction, named “forward mode” or “calcium export mode”, Ca^2+ is transported out of the cell and Na^+ is transported into the cell. At the other direction, named “reverse mode” or “calcium import mode”, the transport directions are vice versa. The effect of the compounds of the invention on NCX1 was determined in CHO cells stably expressing human NCX1 (gene symbol SLC8A1; cf. WO 2009/115238). The assay is based on the monitoring of intracellular Ca^2+ concentrations using a calcium-sensitive fluorescence dye which is detected by means of a FLIPR device (Fluorimetric Imaging Plate Reader, Molecular Devices).
The assay is based on the monitoring of intracellular Ca^2+ concentrations using the PBX Calcium Assay Kit from BD (Becton, Dickinson and Company) with calcium indicator dye 51-9000177BKa (BD, 640177). CHO cells expressing NCX1 were loaded with the dye, and after a preincubation period with the test compound, Ionomycin (Calbiochem, 407950) was added. Ionomycin is an ionophor for Ca^2+ ions mediating an increase of intracellular Ca^2+ ions. Consequently, intracellular Ca^2+ ions are exchanged against extracellular Na^+ ions (Ca^2+ efflux, forward mode). The decrease of intracellular Ca^2+ ions was detected by measuring the fluorescence of the calcium indicator dye at a wavelength of 520 nm by a FLIPR device.
Briefly, similarly as for the reverse mode, for the forward mode transport assay 18000 cells per well were seeded into a 96 well microplate (Corning COSTAR 3904) and incubated overnight in culture medium (cf. above). A total volume of 100 μl medium per well was used. For the preparation of the FLIPR assay, the culture medium was removed from the plates and 100 μl of assay buffer (133.8 mM NaCl (Sigma, S5886); 4.7 mM KCl (Sigma, P3911); 1.25 mM MgCl2 (Merck, 1.05833.0250); 3.5 mM CaCl2(Merck, 1.02083.0250); 5 mM glucose (Sigma, G7021); 10 mM Hepes (Sigma, H4034); pH 7.4)) were added to each well in a washing step. Assay buffer was removed, and 100 μl of a solution of the test compound in assay buffer in different concentrations were added into the wells. Further, 100 μl of dye solution (0.09% (v/v) calcium indicator dye, 9.1% (v/v) signal enhancer (from PBX Calcium Assay Kit); in assay buffer) were added into each well. The plates were incubated in the dark at room temperature for 60 min. Meanwhile a 10 μM solution of Ionomycin in assay buffer (additionally containing 0.05% fetal calf serum (cf. above); 4° C.) was prepared and stored in the wells of a 96 well microplate (96 well microplate, polypropylene, U-shape (Greiner Bio-One, 650201)). The fluorescence monitoring was performed at 60 measuring points with measurement intervals of 2 sec. After the fifth measuring point, 50 μl of the Ionomycin solution were added to each well of the assay plate to give a final Ionomycin concentration of 2 μM. For the determination of the IC50 values the minimal fluorescence value was subtracted from the maximal fluorescence value for the fifteenth to fifty-fifth measuring points. The calculation of the IC50 values via the percentage inhibitions of Ca^2+ efflux out of cells (forward mode) effected by the test compound was performed in Biost@t Speed 2.0. “NCX1fw IC50” in Table 2 means the IC50 value for inhibition of NCX1 in forward mode (in μM (micromol/liter)).

human NCX1 [2] = target: T1, human NCX1; assay: NCX1 inhibition, reverse mode (Ca2+ influx into cells), FLIPR Fluo-4 assay; type: cell-based; details: inhibition of NCX1 in reverse mode (Ca2+ influx into cells); read-out: NCX1rv IC50
Method in brief: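 CHO cells stably expressing human NCX1 were loaded with 2 µM Fluo-4 AM for 80 min at room temperature, then preincubated with compound for 45 min at 16 °C in pH 7.4 HEPES buffer (3.5 mM CaCl2, 2.5 mM probenecid). Reverse-mode Ca2+ influx was triggered by 20 µM final gramicidin and read at 520 nm on FLIPR. IC50 came from % inhibition of max−min fluorescence.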

Sprague-Dawley rats = assay: In vivo method for determining the effect on heart contractility (left ventricular dp/dtmax); details: Rattus norvegicus, iv, read-out: Contractility increase (%)
Method: Adult male Sprague-Dawley rats (Harlan Winkelmann, Borchen, Germany) weighing 340 to 370 g were anesthetized with pentobarbital (100 mg/kg i.p.) and ventilated with a mixture of oxygen (40%) and room air (60%) at a tidal volume of 1 ml/100 g at 60 breaths/min. Body temperature was maintained at 36.5±0.3° C. with a heating lamp and was monitored with a rectal thermo sensor. Systemic blood pressure was measured in the left carotid artery using a pressure transducer (Combitrans; B. Braun Melsungen AG, Melsungen, Germany) connected to a DC-bridge-amplifier (PLUGSYS/ADC Type 663; Harvard Apparatus GmbH, March-Hugstetten, Germany). The electrocardiogram was measured as lead II via subcutaneously placed electrodes connected to a Heart-Rate-Module ([…] Type 669; Harvard Apparatus GmbH, March-Hugstetten, Germany). A micro-tip catheter (2 French, SPR-320; Millar Instruments, Houston, Tex., USA) was placed via the right carotid artery into the left ventricle, and the left ventricular pressure (LVP) and the enddiastolic pressure (EDP) were continuously measured. Registration of the hemodynamic data was performed via an analog digital converter by a personal computer using Notocord software (HEM version 3.5). Left ventricular contractility (dp/dtmax) and relaxation (dp/dtmin) were calculated from the LVP signal. For intravenous administration of the test compounds, the left jugular vein was prepared and a PP-50 catheter was inserted. Test compounds were administered either by intravenous bolus injection or by intravenous infusion by means of an infusion pump (Unita; B. Braun Melsungen AG, Melsungen, Germany). […] In a typical experiment, several dosages of the test compound were administered subsequently at increasing doses. Statistical significance of the data obtained with drug vs. control experiments, in which solvent was administered, was evaluated with the 2-sided ANOVA test (program Everstat). Increases in left ventricular contractility (percent increase) by example compounds are given in Table 3 in comparison to control experiments in which solvent was administered.

Row | SMILES | inhibition at 10 µM (human NCX1 [1]) [%] | pIC50 (human NCX1 [2]) | pIC50 (human NCX1 [1]) | change in vivo at 0.03 mg/kg/min (Sprague-Dawley rats) [%] | change in vivo at 0.1 mg/kg/min (Sprague-Dawley rats) [%]
1 | c1ccc(C2CCc3cc(Oc4ncc(CNCc5cn6ccsc6n5)s4)ccc3O2)cc1 (stereo not shown) [Example 158] | 46 | 6.52 |  |  | 
2 | O=C(NCc1ccncc1)c1sc(Oc2ccc3c(c2)CCC(c2ccccc2)O3)nc1Cl (stereo not shown) [Example 177, 4-Chloro-2-(2-phenyl-chroman-6-yloxy)-thiazole-5-carboxylic acid (pyridin-4-ylmethyl)-amide hydrochloride] |  | 6.52 | 6.10 |  | 
3 | COC(=O)C(C)(C)NC(=O)c1cnc(Oc2ccc3c(c2)CC[C@@H](c2ccccc2)O3)s1 [Example 182] | 8 | 6.22 |  |  | 
4 | CCOC(=O)[C@@H]1CCCC[C@@H]1NC(=O)c1cnc(Oc2ccc3c(c2)CC[C@@H](c2ccccc2)O3)s1 [Example 189] | 17 | 6.22 |  |  | 
5 | O=C(NC(CCO)C1CC1)c1cnc(Oc2ccc3c(c2)CC[C@@H](c2ccccc2)O3)s1 (stereo partly shown) [Example 206] |  | 6.52 | 5.80 |  | 
6 | O=C(c1cnc(Oc2ccc3c(c2)CC[C@@H](c2ccccc2)O3)s1)N1CCOCC1 [Example 214] |  | 6.30 | 5.35 |  | 
7 | Cc1ccccc1C1CCc2cc(Oc3ncc(C(=O)NCCN4CCNC4=O)s3)ccc2O1 (stereo not shown) [Example 216, 2-(2-o-Tolyl-chroman-6-yloxy)-thiazole-5-carboxylic acid [2-(2-oxo-imidazolidin-1-yl)-ethyl]-amide] |  | 6.52 | 5.72 |  | 
8 | O=C(O)C1CN(C(=O)c2cnc(Oc3ccc4c(c3)CC[C@@H](c3ccccc3)O4)s2)CC1C(F)(F)F (stereo partly shown) [Example 243] | 19 | 6.15 |  |  | 
9 | O=C(NC1C2CNCC21)c1cnc(Oc2ccc3c(c2)CC[C@@H](c2ccccc2)O3)s1 (stereo partly shown) [Example 255] |  | 6.52 | 6.22 |  | 
10 | COC(=O)[C@@H](C)NC(=O)c1cnc(Oc2ccc3c(c2)CCC(c2cccnc2)O3)s1 (stereo partly shown) [Example 275] |  | 5.51 | 5.00 |  | 
11 | CCCNC(=O)c1cnc(Oc2ccc3c(c2)CCC(c2ccccc2)O3)s1 (stereo not shown) [Example 321, 2-(2-Phenyl-chroman-6-yloxy)-thiazole-5-carboxylic acid propylamide] |  | 6.40 | 5.82 |  | 
12 | Cc1ccccc1[C@H]1CCc2cc(Oc3ncc(C(=O)NCCO)s3)ccc2O1 [Example 325, 2-((R)-2-o-Tolyl-chroman-6-yloxy)-thiazole-5-carboxylic acid (2-hydroxy-ethyl)-amide] | 26 | 6.70 |  |  | 
13 | Cc1ccccc1C1CCc2cc(Oc3nc(C)c(C(=O)NCCO)s3)ccc2O1 (stereo not shown) [Example 335] |  | 6.52 | 6.05 |  | 
14 | Cc1ccccc1[C@@H]1CCc2cc(Oc3ncc(C(=O)NCCOP(=O)(O)O)s3)ccc2O1 [Example 345, Phosphoric acid mono-(2-{[2-((S)-2-o-tolyl-chroman-6-yloxy)-thiazole-5-carbonyl]-amino}-ethyl) ester disodium salt] |  | 7.15 | 5.52 | 32 | 85
15 | Cc1ccc(F)cc1C1CCc2cc(Oc3ncc(C(=O)N(C)C)s3)ccc2O1 (stereo not shown) [Example 348] |  | 6.19 | 6.10 |  | 
16 | O=C(NCCN1CCNC1=O)c1csc(Oc2ccc3c(c2)CC[C@@H](c2ccccc2)O3)n1 [Example 352] | 31 | 6.68 |  |  | 
